According to patent US4248889A, “3,5-Dihydroxypentanoic ester derivatives having antihyperlipaemic activity” (Sankyo Company Limited, priority 1978, dated 1981):

Molecular target: cholesterol biosynthesis (crude enzyme extracted from rat liver)
Test: inhibition of cholesterol biosynthesis by crude enzyme extracted from rat liver (radioactive acetic acid, 37° C., 60 minutes; cholesterol precipitated with digitonin, radioactivity measured)
Type: biochemical
Method: Crude enzyme extracted from rat liver was reacted with radioactive acetic acid at 37° C. for 60 minutes. The radioactive cholesterol thus biosynthesized was saponified and precipitated with digitonin, and the radioactivity was measured to determine the amount of cholesterol produced. The reaction was repeated, by adding one of the compounds of the invention listed in the following Table at the beginning of the reaction, and the amount of cholesterol biosynthesized was again determined, to give a quantitative measurement of the inhibitory effect of the compounds of the invention. The concentrations (μg/ml) of the compounds of the invention and of a known compound (clofibrate) which gave approximately 50% inhibition of cholesterol biosynthesis re reported in the following Table as I50 values [see Bricker et al, The Journal of Biological Chemistry, 247, 4914 (1972)]. The compounds of the invention are identified in the following Table by the numbers heretofore assigned to them.

SMILES	I50 (concentration which gave approximately 50% inhibition of cholesterol biosynthesis) [µg/mL]
CCOC(=O)CC(O)CC(O)CCc1cccc2ccccc12 (centres unmarked) [Compound 3, Ethyl 3,5-dihydroxy-7-(1-naphthyl)heptanoate]	5.0
CCOC(=O)CC(O)CC(O)CCc1c(C)ccc2ccccc12 (centres unmarked) [Compound 4, Ethyl 3,5-dihydroxy-7-(2-methyl-1-naphthyl)heptanoate]	0.24
CCOC(=O)CC(O)CC(O)CCc1c(C)ccc2c1CCCC2 (centres unmarked) [Compound 5, Ethyl 3,5-dihydroxy-7-(2-methyl-5,6,7,8-tetrahydro-1-naphthyl)heptanoate]	1.56
CCOC(=O)CC(O)CC(O)CCCc1cccc2ccccc12 (centres unmarked) [Compound 6, Ethyl 3,5-dihydroxy-8-(1-naphthyl)octanoate]	3.4
CCOC(=O)CC(O)CC(O)CCCc1c(C)ccc2ccccc12 (centres unmarked) [Compound 7, Ethyl 3,5-dihydroxy-8-(2-methyl-1-naphthyl)octanoate]	1.2
CCOC(=O)CC(O)CC(O)C(C)Oc1ccccc1 (centres unmarked) [Compound 9, Ethyl 3,5-dihydroxy-6-phenoxyheptanoate]	23 to 50

Further lines, results first:

I50 (concentration which gave approximately 50% inhibition of cholesterol biosynthesis) [µg/mL]	SMILES
250 to 300	CCOC(=O)C(C)(C)Oc1ccc(Cl)cc1 [Clofibrate, clofibrate, reference compound]
3.7	CCOC(=O)CC(O)CC(O)CCc1ccccc1 (centres unmarked) [Compound 1, Ethyl 3,5-dihydroxy-7-phenylheptanoate]
17.2	CCOC(=O)CC(O)CC(O)CCc1ccc(Cl)cc1 (centres unmarked) [Compound 2, Ethyl 7-p-chlorophenyl-3,5-dihydroxyheptanoate]
9.0	CCOC(=O)CC(O)CC(O)C=Cc1ccccc1 (centres unmarked) [Compound 8, Ethyl 3,5-dihydroxy-7-phenylhept-6-enoate]
5 to 15.2	CCOC(=O)CC(O)CC(O)COc1ccccc1Cl (centres unmarked) [Compound 10, Ethyl 6-(o-chlorophenoxy)-3,5-dihydroxyhexanoate]
